Assay results reported in PMC6505380, “An Extensively Humanized Mouse Model to Predict Pathways of Drug Disposition and Drug/Drug Interactions, and to Facilitate Design of Clinical Trials” (Drug Metabolism and Disposition, 2019).
Entries after “also recorded” stand apart in the source; their conditions may differ. Like-named read-outs stand apart in the source and are kept apart here.

Assays:
[1] = target: T1, CYP1A2 (Homo sapiens, UniProt P05177); assay: Enzyme inhibition assay, caffeine to paraxanthine (HLM, 8HUM microsomes); details: caffeine 220 μM in cocktail, furafylline 3, enoxacin 200, fluconazole 300, sulfaphenazole 3, quinidine 3, paroxetine 10, ketoconazole 1 μM
T1 sequence (P05177 1-516): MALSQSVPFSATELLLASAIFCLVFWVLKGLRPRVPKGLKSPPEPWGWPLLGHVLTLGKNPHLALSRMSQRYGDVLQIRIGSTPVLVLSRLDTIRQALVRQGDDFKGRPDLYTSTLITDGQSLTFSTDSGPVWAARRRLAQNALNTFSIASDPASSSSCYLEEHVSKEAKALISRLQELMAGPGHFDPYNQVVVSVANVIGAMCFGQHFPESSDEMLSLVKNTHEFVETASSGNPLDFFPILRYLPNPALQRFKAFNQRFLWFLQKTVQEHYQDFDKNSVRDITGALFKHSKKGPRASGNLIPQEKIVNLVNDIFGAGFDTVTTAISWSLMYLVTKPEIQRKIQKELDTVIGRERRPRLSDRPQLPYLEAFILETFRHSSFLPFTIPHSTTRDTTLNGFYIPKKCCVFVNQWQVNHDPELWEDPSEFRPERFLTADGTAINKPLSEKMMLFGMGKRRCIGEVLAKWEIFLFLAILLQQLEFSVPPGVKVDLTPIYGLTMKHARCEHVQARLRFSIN
Description: (§1) After a 5-minute preincubation at 37°C, reactions were initiated by addition of NADPH (1.3 mM). […] The samples were then centrifuged at 3000g for 55 minutes at 4°C, and an aliquot of the supernatant fraction was analyzed by LC-MS/MS. All experiments were performed at least in triplicate.

[2] = target: T2, CYP2C9 (Homo sapiens, UniProt P11712); assay: Enzyme inhibition assay, tolbutamide hydroxylation (HLM, 8HUM microsomes); details: tolbutamide 2 μM in cocktail, furafylline 3, enoxacin 200, fluconazole 300, sulfaphenazole 3, quinidine 3, paroxetine 10, ketoconazole 1 μM
T2 sequence (P11712 whole entry): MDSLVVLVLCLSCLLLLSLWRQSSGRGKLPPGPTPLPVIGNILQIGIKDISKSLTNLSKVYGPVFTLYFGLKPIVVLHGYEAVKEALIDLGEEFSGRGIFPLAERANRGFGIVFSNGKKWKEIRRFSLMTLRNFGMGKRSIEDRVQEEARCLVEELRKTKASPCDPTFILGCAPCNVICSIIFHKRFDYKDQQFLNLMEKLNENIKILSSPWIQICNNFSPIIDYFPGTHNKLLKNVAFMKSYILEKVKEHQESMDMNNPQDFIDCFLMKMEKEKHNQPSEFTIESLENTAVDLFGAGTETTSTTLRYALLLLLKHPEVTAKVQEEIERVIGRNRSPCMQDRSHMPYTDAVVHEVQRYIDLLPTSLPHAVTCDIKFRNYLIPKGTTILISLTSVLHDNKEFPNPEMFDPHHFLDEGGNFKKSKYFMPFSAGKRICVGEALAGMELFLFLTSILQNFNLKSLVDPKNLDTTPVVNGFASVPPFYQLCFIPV
Description: as §1

[3] = Dabrafenib pharmacokinetics in 8HUM mice: effect of rifampicin and ketoconazole; type: in vivo, mouse; details: for Cmax / half-life / AUC: female, 8HUM, mouse, whole blood, po, 10 mg/kg, female 8HUM mice, dabrafenib 10 mg/kg PO; for AUC: read-out: AUC0 t
Description: Pharmacokinetic parameters were calculated by Phoenix WinNonlin version 8.0.0.3176 (Certara, Princeton, NJ).
Fig. 3.

[4] = healthy volunteers; single dose of 200 mg ketoconazole 2 hours prior to midazolam; ref McCrea et al., 1999; cited from earlier work
[5] = tested on: Cyp2b10; assay: Murine Cyp2b10 expression in humanized mice after treatment (immunoblot); type: in vivo, mouse; details: 8HUM mice, dabrafenib 10 mg/kg
Description: We therefore sought to identify a specific, clinically relevant PXR agonist that was nontoxic. […] Subsequent studies were therefore undertaken using SJW to induce CYP3A4 expression in 8HUM mice.
(§2) Fig. 7. […] Arrow indicates position of Cyp2b10 band. GRP78 was used as a loading control.
Fig. 8. Effect of dabrafenib on midazolam pharmacokinetics in 8HUM mice. Adult female 8HUM mice (n = 3) were treated with vehicle or dabrafenib (10 mg/kg) PO daily for 2 days, and on day 3 were administered midazolam (3 mg/kg) PO and PK profiling carried out as described in Materials and Methods. (A) Pharmacokinetic profiling for midazolam in 8HUM mice receiving either vehicle (open circles) or dabrafenib (closed triangles). Data shown are mean ± S.D. (B) Immunoblotting of liver microsomes from 8HUM mice, untreated or treated as above, against mouse and human P450 isozymes. Dab, Dabrafenib; MDZ, midazolam; Unt, untreated; Veh, vehicle. One group of dabrafenib-treated mice (Dab) were sacrificed on day 3 without exposure to midazolam to determine the effects of dabrafenib on P450 expression at the start of the PK profiling. […] Std, standard, recombinant human P450 protein or phenobarbital-treated liver microsomes (Cyp2b10); HLM, human liver microsomes.

[6] = tested on: CYP3A4; assay: Hepatic CYP3A4 expression in 8HUM mice after dabrafenib (immunoblot); type: in vivo, mouse; details: dabrafenib 10 mg/kg PO
Description: Female 8HUM mice received either two daily oral doses of dabrafenib (n = 3; 15 weeks; 10 mg/kg) or vehicle (n = 3; 16 weeks; 0.5% hydroxypropylmethylcellulose, 0.2% Tween 80). On day 3 both groups were administered midazolam (3 mg/kg) by oral gavage. Whole blood collection and sample preparation were performed as described above, and analytical details are described in Supplemental Data. A third group of female 8HUM mice (n = 3; 17–22 weeks) received two daily doses of dabrafenib (10 mg/kg) by oral gavage and were culled for tissue collection on day 3 to allow determination of the effects of dabrafenib on P450 expression at the start of the pharmacokinetic (PK) study.
as §2
Fig. 8. Effect of dabrafenib on midazolam pharmacokinetics in 8HUM mice. Adult female 8HUM mice (n = 3) were treated with vehicle or dabrafenib (10 mg/kg) PO daily for 2 days, and on day 3 were administered midazolam (3 mg/kg) PO and PK profiling carried out as described in Materials and Methods. (A) Pharmacokinetic profiling for midazolam in 8HUM mice receiving either vehicle (open circles) or dabrafenib (closed triangles). Data shown are mean ± S.D. (B) Immunoblotting of liver microsomes from 8HUM mice, untreated or treated as above, against mouse and human P450 isozymes. Dab, Dabrafenib; MDZ, midazolam; Unt, untreated; Veh, vehicle. […]

[7] = tested on: Cytochrome c reductase; assay: Cytochrome c reductase activity in liver microsomes of dabrafenib-treated 8HUM mice; type: in vitro ADME, mouse; details: 8HUM liver microsomes
Description: A mixture of cytochrome c from bovine heart (40 μM) and mouse liver microsomes (∼7.6 μg/ml) in 0.3 M potassium phosphate buffer (pH 7.7) was incubated at 37°C for at least 2 minutes before the reaction was started by addition of NADPH (0.1 mM final concentration). The absorbance at 550 nm was recorded and the reaction rate calculated from the linear region of the absorbance time course. The extinction coefficient of 0.0211 μM^−1cm^−1 was used ([van Gelder and Slater, 1962]) to calculate concentration of the reduced cytochrome c.
(§3) Fig. 8. Effect of dabrafenib on midazolam pharmacokinetics in 8HUM mice. […] Dab, Dabrafenib; MDZ, midazolam; Unt, untreated; Veh, vehicle.

[8] = tested on: 8HUM liver microsomes; assay: Dextromethorphan O-demethylation in liver microsomes of dabrafenib-treated 8HUM mice; type: in vitro ADME, mouse
Description: After 5 minutes, the reaction was stopped by combining 100 μl of the reaction mixture with 120 μl of 0.2 M hydrochloric acid containing dextrorphan-d3 (92 ng/ml) as an internal standard. […] The concentrations of […] were measured by liquid chromatography–tandem mass spectrometry (LC-MS/MS). […] The multiple reaction monitoring parameters for dextrorphan and dextrorphan-d3 were 258.16 and 261.24 (precursor ions) and 157.04 (one product ion for both compounds), respectively.
as §3

[9] = tested on: 8HUM liver microsomes; assay: Dibenzylfluorescein O-debenzylation in liver microsomes of dabrafenib-treated 8HUM mice; type: in vitro ADME, mouse; details: for Dibenzylfluorescein O-debenzylation: 8HUM liver microsomes, dabrafenib-treated
Description: The O-debenzylation of dibenzylfluorescein (DBF) was measured as described above for the 7-methoxyresorufin O-demethylation assay, with the following modifications: the DBF concentration was 2 μM; the excitation filter was 485 nm; the emission filter was 530 nm; 20 pmol of the fluorescein was added to the control wells.
as §3

[10] = parameters: method as in Suttle et al., 2015; details: patients, 150 mg twice per day, ref Suttle et al., 2015, cited from earlier work
[11] = target: T1, CYP1A2; assay: 7-Methoxyresorufin O-demethylation in liver microsomes of treated 8HUM mice; details: 8HUM liver microsomes, dabrafenib-treated
Description: A mixture of either 7-methoxyresorufin or 7-ethoxyresorufin (1 μM) and 8HUM liver microsomes or HLM (∼0.38 mg protein/ml) in 100 mM potassium phosphate buffer (pH 7.4) supplemented with MgCl2 (3.3 mM) was incubated at 37°C for 5 minutes before the addition of NADPH (final concentration 1.2 mM). […] Slopes of the linear part of the kinetic curves were calculated using Ascent Software Version 2.4.1 (Labsystems). For each reaction two controls, with and without reaction product resorufin (40 pmol) were run. Fluorescence was measured from both control wells and the difference in fluorescence intensity between wells with and without resorufin was used for the conversion of the relative fluorescence units to the picomoles of the reaction product.

[12] = tested on: CYP2D6; parameters: method as in VandenBrink et al., 2012; details: man; ref VandenBrink et al., 2012; cited from earlier work
[13] = Pharmacokinetics of S-acenocoumarol in 8HUM and CypC4KO mice: effect of sulfaphenazole; type: in vivo, mouse; details: S-acenocoumarol 1 mg/kg oral
Description: Mice were administered two daily doses of SJW before receiving a single oral dose of S-acenocoumarol (1 mg/kg). S-acenocoumarol was dissolved in dimethyl sulfoxide (1 mg/ml) and diluted 10-fold in 100 mM potassium phosphate buffer (pH8) or in a solution of sulfaphenazole (9.78 mg/ml) in the same buffer. Compounds were administered to mice at a volume of 10 ml/kg. Blood collection and sample preparation was performed as described above and analytical details are provided in Supplemental Data.
Fig. 6. […] (A) In vitro microsomal stability assay. […] Values show are mean ± S.D.

[14] = parameters: method as in Thijssen et al., 2001; unit not given beside the values; details: man; ref Thijssen et al., 2001; cited from earlier work
[15] = Microsomal stability of S-acenocoumarol; details: 1 μM, 2 mg protein/ml
Description: The reaction mixture aliquots were taken at specified time points and mixed with an equal volume of acetonitrile containing warfarin (50 ng/ml) as an internal standard. […] The concentrations of S-acenocoumarol were measured by LC-MS/MS. Chromatographic separation was performed on a Kinetex C18 100 Å column (2.6 μm; 5.0 × 2.1 mm) (Phenomenex) using an injection volume of 10 μl and a run time of 7 minutes. The detector used was a Micromass Quattro Micro mass spectrometer (Waters Corporation) run in electrospray positive ion mode.

[16] = target: T2, CYP2C9; parameters: pooled rifampicin-treated male and female 8HUM mice (8HUM) or pooled human liver microsomes (HLM); host or cells: liver microsomes: pooled human liver; liver of 8HUM mice carrying human CYP2C9 driven by the albumin promoter; details: man; ref Thijssen et al., 2001; cited from earlier work
[17] = tested on: CYP2D6; assay: Kinetic parameters of 4-hydroxyl debrisoquine formation in liver microsomes (HLM, 8HUM); type: in vitro ADME; details: pooled human liver microsomes (HLM)
Description: All samples were handled in amber tubes under conditions of subdued light for the duration of the procedure. […] The samples were then centrifuged at 3000g for 55 minutes at 4°C and an aliquot of the supernatant fraction was analyzed by LC-MS/MS.
Calibration curves were constructed with authentic metabolite standards and linear regression analysis used to calculate the amount of metabolite formed in each test sample. […] The 7-ethoxyresorufin O-deethylation assay was carried out as detailed below.

[18] = female, 8HUM, mouse, in vivo
Description: Blood sampling and analysis was carried out as described above and in Supplemental Data.

[19] = Rifampicin 10 mg/kg i.p. daily for 3 days
[20] = Rifampicin + ketoconazole 20 mg/kg PO 30 minutes before
[21] = Vehicle (corn oil) pretreatment

CC(=O)N1CCN(c2ccc(OCC3COC(Cn4ccnc4)(c4ccc(Cl)cc4Cl)O3)cc2)CC1 (stereo not drawn) [Ketoconazole, ketoconazole]
Caffeine (Paraxanthine) activity, percent of activity measured in the absence of inhibitor ([1]; 8HUM microsomes […]): 85 ± 34%
Caffeine (Paraxanthine) activity, percent of activity measured in the absence of inhibitor ([1]; HLM […]): 135 ± 45%
Tolbutamide (OH-Tolbutamide) activity, percent of activity measured in the absence of inhibitor ([2]; 8HUM microsomes […]): 92 ± 11%
Tolbutamide (OH-Tolbutamide) activity, percent of activity measured in the absence of inhibitor ([2]; HLM […]): 154 ± 66%
Effect of prior ketoconazole on dabrafenib exposure (Cmax and AUC) ([3]; rifampicin-treated female 8HUM mice, ketoconazole 20 mg/kg PO 30 min before dabrafenib): approximately doubling both the Cmax and AUC
Increase of midazolam AUC [4]: ~5 fold

CC(C)(C)c1nc(-c2cccc(NS(=O)(=O)c3c(F)cccc3F)c2F)c(-c2ccnc(N)n2)s1 [dabrafenib]
Cmax [3, 19]: 1740 ± 733 ng/mL
half-life [3, 19]: 1.4 ± 0.3 h
AUC [3, 19]: 6150 ± 2930 ng·h/mL
Cmax [3, 20]: 3650 ± 1220 ng/mL
half-life [3, 20]: 1.8 ± 0.1 h
AUC [3, 20]: 12900 ± 2710 ng·h/mL
Cmax [3, 21]: 3740 ± 613 ng/mL
half-life [3, 21]: 2.6 ± 0.4 h
AUC [3, 21]: 21900 ± 1690 ng·h/mL
Induction of murine Cyp2b10 [5]: induced weakly
CYP3A4 induction [6]: potent PXR activator and CYP3A4 inducer; also recorded: is a CYP3A4 inducer; also recorded: induction of CYP3A4
Cytochrome c reductase ([7]; 24 h after final dose): 301 ± 19
Cytochrome c reductase ([7]; 48 h after final dose): 244 ± 19
Dextromethorphan O-demethylation ([8]; 24 h after final dose): 726 ± 24
Dextromethorphan O-demethylation ([8]; 48 h after final dose): 614 ± 28
Dibenzylfluorescein O-debenzylation ([9]; 24 h after final dose): 440 ± 31
Dibenzylfluorescein O-debenzylation ([9]; 48 h after final dose): 151 ± 5
Increase of 7-benylfluorescein O-debenzylation ([9]; 24 hours after the second dabrafenib dose, vs vehicle): approximately 5.5 fold
Elevation of 7-benylfluorescein O-debenzylation ([9]; 24 hours later (48 h after final dabrafenib dose), vs control): about twice control values
AUC0-t ([10]; day 1): 9359 ng·h/mL
half-life ([10]; day 1): 4.2 h
AUC0-t ([10]; day 18): 6545 ng·h/mL
half-life ([10]; day 18): 2.1 h
Methoxyresorufin O-demethylation ([11]; 24 h after final dose): 52 ± 4
Methoxyresorufin O-demethylation ([11]; 48 h after final dose): 36 ± 1

CNCCCN1c2ccccc2CCc2ccccc21 [desipramine]
CYP2D6 fm [12]: 0.88

CC(=O)C[C@@H](c1ccc([N+](=O)[O-])cc1)c1c(O)c2ccccc2oc1=O [S-acenocoumarol]
AUC ([13]; SJW-pretreated 8HUM mice, coadministered sulfaphenazole): 2008 ± 159 ng·h/mL
AUC ([13]; SJW-pretreated 8HUM mice, vehicle-treated): 230 ± 30 ng·h/mL
AUC ([13]; SJW-pretreated CypC4KO mice): 2520 ± 214 ng·h/mL
AUCR in CYP2C9 extensive versus poor metabolizers [14]: 16.3
Metabolism in liver microsomes ([15]; liver microsomes from CYP2C9 humanized mice): rapidly metabolized
Metabolism in liver microsomes ([15]; microsomes from wild-type, Cyp2cKO, Cyp2c/2d/3a KO, or hepatic P450 reductase-null mice): practically indistinguishable from that in the no cofactor control
fraction metabolized by CYP2C9 [16]: 0.94

N=C(N)N1CCc2ccccc2C1 [Debrisoquine, debrisoquine]
Km at 40 min ([17]; pH 7.4): 25 ± 7 µM
Vmax [17]: 25 ± 2 pmol/min per milligram protein
CYP2D6 fm (fraction metabolized) [18]: 0.88
